Active and inactive are the calls of the source. The rule behind the calls is not given here.
Legend:
CCRF-CEM [1] = experiment: Tested for the antiviral activity against HIV-1 infected CEM cells; type: functional; conditions: Homo sapiens, read-out: ID50 (the source's name)
CCRF-CEM [2] = experiment: Tested for cytotoxicity against HIV-1 uninfected CEM cells; type: functional; conditions: Homo sapiens, read-out: TD50 (the source's name)
[3] = target: T1, Glycylpeptide N-tetradecanoyltransferase 1 (Homo sapiens) (UniProt P30419); experiment: In vitro production of Acylpeptide by human N-myristoyltransferase (NMT) assay
T1 sequence (whole entry): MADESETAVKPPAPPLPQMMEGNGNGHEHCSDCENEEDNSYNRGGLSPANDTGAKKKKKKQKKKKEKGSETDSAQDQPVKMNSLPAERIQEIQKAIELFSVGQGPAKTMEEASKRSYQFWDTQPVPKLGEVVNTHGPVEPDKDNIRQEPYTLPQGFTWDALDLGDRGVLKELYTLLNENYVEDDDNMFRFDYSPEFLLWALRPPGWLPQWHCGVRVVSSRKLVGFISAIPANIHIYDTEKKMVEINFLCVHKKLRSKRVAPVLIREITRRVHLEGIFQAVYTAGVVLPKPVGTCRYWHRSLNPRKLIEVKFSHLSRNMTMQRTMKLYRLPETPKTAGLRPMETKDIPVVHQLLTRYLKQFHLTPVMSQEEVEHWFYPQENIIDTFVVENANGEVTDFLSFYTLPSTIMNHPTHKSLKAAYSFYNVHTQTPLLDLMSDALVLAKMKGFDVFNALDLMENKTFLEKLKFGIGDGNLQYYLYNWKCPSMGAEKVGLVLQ

[4] = target: Glycylpeptide N-tetradecanoyltransferase (Saccharomyces cerevisiae) (UniProt P14743); experiment: Tested in vitro for the production of Acylpeptide by yeast N-myristoyltransferase (NMT) assay
Glycylpeptide N-tetradecanoyltransferase (Saccharomyces cerevisiae), sequence (P14743 whole entry, looked up): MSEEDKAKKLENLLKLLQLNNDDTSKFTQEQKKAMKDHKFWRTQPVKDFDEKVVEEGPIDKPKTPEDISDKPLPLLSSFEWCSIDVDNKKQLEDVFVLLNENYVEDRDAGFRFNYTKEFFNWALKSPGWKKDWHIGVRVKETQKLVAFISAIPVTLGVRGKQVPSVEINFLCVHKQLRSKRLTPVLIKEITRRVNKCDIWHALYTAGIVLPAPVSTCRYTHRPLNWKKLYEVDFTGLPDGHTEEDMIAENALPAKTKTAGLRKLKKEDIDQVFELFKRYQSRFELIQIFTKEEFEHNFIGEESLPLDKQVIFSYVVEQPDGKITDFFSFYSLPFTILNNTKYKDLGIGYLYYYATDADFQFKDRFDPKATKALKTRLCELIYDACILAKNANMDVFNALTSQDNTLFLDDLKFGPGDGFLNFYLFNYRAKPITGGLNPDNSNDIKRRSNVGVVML

Pseudomonas = experiment: Tested in vitro for the production of acyl-CoA by Acyl-CoA synthetase in Pseudomonas
Homo sapiens = species: Homo sapiens; experiment: Tested in vitro for the production of acyl-CoA of compound by Acyl-CoA synthetase in human
CCRF-CEM [5] = experiment: Tested for the antiviral activity against HIV-1 infected CEM cells; Value ranges from 9-20; type: functional; conditions: Homo sapiens, read-out: ID50 (the source's name)
CCRF-CEM [6] = experiment: Tested for the antiviral activity against HIV-1 infected CEM cells; NA means not active; type: functional, cell-based; conditions: Homo sapiens
CCRF-CEM [7] = experiment: Tested for the antiviral activity against HIV-1 infected CEM cells; Value ranges from 1-5; type: functional; conditions: Homo sapiens, read-out: ID50 (the source's name)
CCRF-CEM [8] = experiment: Tested for cytotoxicity against HIV-1 uninfected CEM cells; Value ranges from 80-190; type: functional; conditions: Homo sapiens, read-out: TD50 (the source's name)

Compound | IC50 (CCRF-CEM [1]) [µM] | Myristoylpeptide [3] [%] | Myristoylpeptide [4] [%] | MyristoylCoA (Pseudomonas) [%] | MyristoylCoA (Homo sapiens) [%] | IC50 (CCRF-CEM [5]) [µM] | IC50 (CCRF-CEM [7]) [µM] | CC50 (CCRF-CEM [2]) [µM] | ID50 (CCRF-CEM [6]) | CC50 (CCRF-CEM [8]) [µM]
COCCCCCCCCCCC(F)C(=O)O (centres undefined) |  | < 5 | 14 | 14 | 26 |  |  | > 100 | inactive | 
COCCCCCCCCCCCCC(=O)O |  | 84 | 109 | 175 | 75 |  | 1 |  |  | 80
COCCCCCCCCC/C=C/C(=O)O | 5 | 5 | 7 | 78 | 12 |  |  | > 80 |  | 

The next lines start with results.

IC50 (CCRF-CEM [1]) [µM] | Myristoylpeptide [3] [%] | Myristoylpeptide [4] [%] | MyristoylCoA (Pseudomonas) [%] | MyristoylCoA (Homo sapiens) [%] | IC50 (CCRF-CEM [5]) [µM] | IC50 (CCRF-CEM [7]) [µM] | Compound | CC50 (CCRF-CEM [2]) [µM] | ID50 (CCRF-CEM [6]) | CC50 (CCRF-CEM [8]) [µM]
77 | < 5 | 107 |  |  |  |  | COCCCCCCCCC(O)CCC(=O)O (centres undefined) | > 400 |  | 
 | < 5 | < 5 | 114 | < 5 | 9 |  | COCCCCCCCCCC(O)CC(=O)O (centres undefined) | 280 |  | 
 | 5 | < 5 | 94 | < 5 |  | 1 | COCCCCCCCCCC(F)CC(=O)O (centres undefined) | 300 |  | 
